In ChEMBL document CHEMBL3272213, “Synthesis and pharmacology of novel anxiolytic agents derived from 2-[(dialkylamino)methyl-4H-triazol-4-yl] benzophenones and related heterocyclic benzophenones” (1976):

Tests used:
Format in all cases: functional
Mus musculus [1] = experiment: Anxiolytic activity in ip dosed male albino CF-1 mouse assessed as decrease in traction reflex
Mus musculus [2] = experiment: Anxiolytic activity in ip dosed male albino CF-1 mouse assessed as decrease in dish reflex
Mus musculus [3] = experiment: Anxiolytic activity in ip dosed male albino CF-1 mouse assessed as inhibition of nicotine-induced tonic extensor convulsions
Mus musculus [4] = experiment: Anxiolytic activity in ip dosed male albino CF-1 mouse assessed as inhibition of nicotine-induced death
Mus musculus [5] = experiment: Anxiolytic activity in ip dosed male albino CF-1 mouse assessed as inhibition of thiosemicarbazide -induced lethality; settings: CF-1, ip
Mus musculus [6] = experiment: Anxiolytic activity in ip dosed male albino CF-1 mouse assessed as inhibition of strychnine-induced lethality; settings: CF-1, ip
Mus musculus [7] = experiment: Anxiolytic activity in ip dosed male albino CF-1 mouse assessed as inhibition of pentylenetetrazole-induced clonic convulsions; settings: CF-1, ip
Mus musculus [8] = experiment: Potentiation of ethanol-induced anxiolytic activity in ip dosed male albino CF-1 mouse; settings: CF-1, ip
Mus musculus [9] = experiment: Anxiolytic activity in ip dosed male albino CF-1 mouse assessed as inhibition of electroshock-induced convulsions; settings: CF-1, ip
[10] = Mus musculus, CF-1, ip, read-out: ED50

SMILES	ED50 (Mus musculus [1]; [10])	ED50 (Mus musculus [2]; [10])	ED50 (Mus musculus [3]; [10])	ED50 (Mus musculus [4]; [10])	ED50 (Mus musculus [5])	ED50 (Mus musculus [6])	ED50 (Mus musculus [7])	ED50 (Mus musculus [8])	ED50 (Mus musculus [9])	ED50 (Mus musculus [1])	ED50 (Mus musculus [2])	ED50 (Mus musculus [3])	ED50 (Mus musculus [4])
Cc1nnc(CN(C)C)n1-c1ccc(Cl)cc1C(=O)c1ccccc1Cl	3.2 mg/kg	0.25 mg/kg	0.14 mg/kg	0.14 mg/kg	0.02 mg/kg	11 mg/kg	0.28 mg/kg	0.63 mg/kg	50 mg/kg				
CN1C(=O)CN=C(c2ccccc2)c2cc(Cl)ccc21 [DIAZEPAM]	5 mg/kg	0.31 mg/kg	0.11 mg/kg	0.11 mg/kg	0.2 mg/kg	3.6 mg/kg	0.8 mg/kg	1 mg/kg	20 mg/kg				
Cc1nnc(CN2CCOCC2)n1-c1ccc(Cl)cc1C(=O)c1ccccc1	5 mg/kg	1.8 mg/kg	0.45 mg/kg	0.5 mg/kg	0.8 mg/kg	6.3 mg/kg	1.8 mg/kg	4.4 mg/kg	> 50 mg/kg				
CN(C)Cc1nccn1-c1ccc(Cl)cc1C(=O)c1ccccc1Cl	11 mg/kg	2.2 mg/kg	1 mg/kg	1.2 mg/kg	1.1 mg/kg	> 50 mg/kg	1.8 mg/kg	2.5 mg/kg					
Cc1nnc(CN2CCCC2)n1-c1ccc(Cl)cc1C(=O)c1ccccc1Cl	18 mg/kg	1 mg/kg	1.3 mg/kg	1.8 mg/kg	1.1 mg/kg	1 mg/kg	4 mg/kg	6 mg/kg	> 100 mg/kg				
CNCc1nn(C)c(=O)n1-c1ccc(Cl)cc1C(=O)c1ccccc1.Cl	12.5 mg/kg	4 mg/kg	0.45 mg/kg	0.56 mg/kg			5.6 mg/kg						
CN(C)Cc1nnc(C2CC2)n1-c1ccc(Cl)cc1C(=O)c1ccccc1Cl	7.1 mg/kg	1.1 mg/kg	0.6 mg/kg	0.6 mg/kg	0.4 mg/kg	5 mg/kg	1 mg/kg	2.2 mg/kg	79 mg/kg				
NCC(=O)Nc1ccc(Cl)cc1C(=O)c1ccccc1	32 mg/kg	5.6 mg/kg	0.25 mg/kg	0.25 mg/kg	1.6 mg/kg	22 mg/kg		2.5 mg/kg	29 mg/kg				
CN(C)Cc1nnc(-c2ccncc2)n1-c1ccc(Cl)cc1C(=O)c1ccccc1Cl	> 100 mg/kg	20 mg/kg	11 mg/kg	11 mg/kg	4.4 mg/kg	> 50 mg/kg			> 100 mg/kg				
Cc1nnc(CN(C)C)n1-c1ccc(Cl)cc1C(=O)c1ccccc1	5 mg/kg	2.2 mg/kg	0.5 mg/kg	0.5 mg/kg	0.3 mg/kg	5 mg/kg	1.1 mg/kg	1.1 mg/kg	45 mg/kg				
Cc1nnc(CN2CCCC2)n1-c1ccc(Cl)cc1C(=O)c1ccccc1	4 mg/kg	1.3 mg/kg	0.4 mg/kg	0.4 mg/kg	2 mg/kg	4 mg/kg	2 mg/kg	1.8 mg/kg	89 mg/kg				
Cc1nnc2n1-c1ccc(Cl)cc1C(c1ccccc1Cl)=NC2 [TRIAZOLAM]	0.6 mg/kg	0.028 mg/kg	0.013 mg/kg	0.014 mg/kg	0.028 mg/kg	0.23 mg/kg	0.03 mg/kg	0.63 mg/kg	32 mg/kg				
Cc1nnc(CN2CCCC2)n1-c1ccc(Cl)cc1Cc1ccccc1	> 100 mg/kg	40 mg/kg	36 mg/kg	36 mg/kg			> 100 mg/kg						
CCN(CC)CC(=O)Nc1ccc(Cl)cc1C(=O)c1ccccc1	> 200 mg/kg	100 mg/kg	23 mg/kg	28 mg/kg			140 mg/kg						
Cc1nc(CN(C)C)n(-c2ccc(Cl)cc2C(=O)c2ccccc2Cl)c1CO	18 mg/kg	3.5 mg/kg	1 mg/kg	1 mg/kg	2 mg/kg	> 25 mg/kg	1.8 mg/kg	18 mg/kg	100 mg/kg				
CNCc1nnc(C)n1-c1ccc(Cl)cc1C(=O)c1ccccc1	2.5 mg/kg	0.8 mg/kg	0.1 mg/kg	0.1 mg/kg	0.3 mg/kg	3.2 mg/kg	1.1 mg/kg	2 mg/kg	63 mg/kg				
CN(C)CCn1nc(CN(C)C)n(-c2ccc(Cl)cc2C(=O)c2ccccc2)c1=O	100 mg/kg	28 mg/kg	6.3 mg/kg	6.3 mg/kg	9 mg/kg	> 100 mg/kg	18 mg/kg	80 mg/kg	> 100 mg/kg				
Cc1nnc(CN2CCCC2)n1-c1ccc(Cl)cc1C(O)c1ccccc1 (stereo in doubt; 21)							14 mg/kg			>200 mg/kg	5 mg/kg	32 mg/kg	32 mg/kg
CN(C)Cc1nnc(-c2ccco2)n1-c1ccc(Cl)cc1C(=O)c1ccccc1	71 mg/kg	28 mg/kg	16 mg/kg	16 mg/kg	8 mg/kg	45 mg/kg	23 mg/kg	25 mg/kg	> 100 mg/kg				
CN(C)Cc1nn(CO)c(=O)n1-c1ccc(Cl)cc1C(=O)c1ccccc1Cl	6.3 mg/kg	1 mg/kg	0.13 mg/kg	0.13 mg/kg	0.23 mg/kg	12.5 mg/kg	0.32 mg/kg	2 mg/kg	> 100 mg/kg				
Cc1nnc(CN(C)C)n1-c1ccccc1C(=O)c1ccccc1Cl	> 100 mg/kg	22 mg/kg	5 mg/kg	5 mg/kg	3.6 mg/kg	> 50 mg/kg	7 mg/kg	> 100 mg/kg	> 100 mg/kg				
Cc1nnc(CN2CCCC2)n1-c1ccc(Cl)cc1C(O)c1ccccc1 (stereo in doubt; 20)										>25 mg/kg	16 mg/kg	8 mg/kg	8 mg/kg
Cc1nnc2n1-c1ccc(Cl)cc1C(c1ccccc1)=NC2 [ALPRAZOLAM]	0.6 mg/kg	0.056 mg/kg	0.02 mg/kg	0.02 mg/kg	0.16 mg/kg	0.3 mg/kg	0.2 mg/kg	0.16 mg/kg	25.5 mg/kg				
CCNCc1nnc(C)n1-c1ccc(Cl)cc1C(=O)c1ccccc1	2.5 mg/kg	1 mg/kg	0.2 mg/kg	0.2 mg/kg	0.6 mg/kg	45 mg/kg	0.5 mg/kg	0.6 mg/kg	45 mg/kg				
Cc1nnc(CN)n1-c1ccc(Cl)cc1C(O)c1ccccc1 (stereo not given)	9 mg/kg	2.8 mg/kg	1.6 mg/kg	1.6 mg/kg	1.2 mg/kg	28 mg/kg	4 mg/kg	3.1 mg/kg	71 mg/kg				
